Tested on: 415267-285-R-J2-PDC complex spheroid viability
Assay: Anticancer human tumor 415267-285-R-J2-PDC patient-derived breast carcinoma cell line growth inhibition [POLQ]
Conditions: for IC50: curve of first compound; for viability, T/C: stronger effect = lower value
Method: Multicellular complex tumor spheroid response to Polymerase (POL) inhibitors (novobiocin, ART-558, RP6685) in combination with a variety of drugs and investigational agents in selected tumor cell lines
The POL inhibitors (novobiocin, ART-558, and RP6685) were evaluated both individually and in combination with standard of care and investigational anticancer small molecules within a complex spheroid model of solid tumors. . Complex spheroids include a stromal component modeled by human endothelial cells (HUVEC) and fibroblasts modeled by human mesenchymal stem cells (MSCs). The concentration ranges selected for each drug and investigational agent were based upon clinically achievable concentrations if the clinical Cmax of the agent was known.
Compounds. The drugs and investigational agents: novobiocin (NSC847541), ART-558 (NSC835418), RP-6685 (NSC848927), peposertib (NSC802822), ceralasertib (NSC780249), elimusertib (NSC800525), camonsertib (NSC841442), AZD-1390 (NSC803789), olaparib (NSC753686), talazoparib (NSC767125), rucaparib (NSC756644), sotorasib (NSC818433), MRTX-1133 (NSC836407), SN-38 (NSC673596), topotecan (NSC609699), epotoside (NSC141540), doxorubicin (NSC123127), gemcitabine (NSC613327), 5-fluorouracil (NSC19893), paclitaxel (NSC125973), vemurafenib (NSC761431), MSA-2 (NSC828583), SN-011 (NSC837082), adavosertib (NSC754352), prexasertib (NSC758257), carboplatin (NSC241240) and oxaliplatin (NSC266046), were obtained from the National Cancer Institute (NCI) Developmental Therapeutics Program Chemical Repository (21). The FDA-approved anticancer drug set is available from the Developmental Therapeutics Program at https://dtp.cancer.gov/organization/dscb/obtaining/. […] The stock solutions were prepared in dimethyl sulfoxide (DMSO, Sigma-Aldrich, St. Louis, MO, cat. D2650), except for the platinum compounds which were prepared in saline (Quality Biological, Gaithersburg, MD, cat. 114-055-101), at 800-fold the tested concentration and stored at -70 degrees C prior to their use. All drugs and investigational agents were tested over a range starting from a high concentration at or near the clinical Cmax and decreasing in half-log increments. If the clinical Cmax for an agent had not been determined, the highest concentration tested was 10 microM, except for SN-38, which was tested at a high concentration of 1 microM.
Cell Culture. All cells were maintained in an incubator at 37 degrees C and 5% CO2 with 95% humidity. The PDC lines were cultured according to standard operating procedures established by the NCI PDMR (https://pdmr.cancer.gov). Table 3 of the manuscript, lists the cell lines along with the number of the three cell types plated to form the mct-spheroids and media for tumor cell growth. After thawing, all PDC lines, except 997537-175-T-J1-PDC and 415267-285-R-J2-PDC, were cultured in Matrigel-coated flasks prepared with a working solution of 1X Ham's F-12 nutrient mix, without supplementation (Thermo Fisher Scientific, cat. 11765054), 100 U/mL penicillin-streptomycin (Thermo Fisher Scientific, cat. 15140122), and 2.5% Matrigel (Corning Inc., Corning, NY, cat. 354248) for the first three passages. The two PDC lines 997537-175-T-J1-PDC and 415267-285-R-J2-PDC were cultured on uncoated flasks. The 857933-349-R-J2-PDC line was cultured in 6C/Colon 1B media containing advanced DMEM/F-12 (Thermo Fisher Scientific, cat. 12634028), 10 mM HEPES (Thermo Fisher Scientific, cat. 15630080), 1X GlutaMAX supplement (Thermo Fisher Scientific, cat. 35050061), 0.1 mg/mL primocin (InvivoGen, San Diego, CA, cat. ant-pm-2), 10% defined fetal bovine serum, heat inactivated (HyClone Laboratories Inc., Logan, UT, cat. SH30070.03HI), 50% L-WRN conditioned media (ATCC, cat. CRL-3276), 1.25 mM N-Acetyl-L-cysteine (Sigma-Aldrich, cat. A9165), 10 mM nicotinamide (Sigma-Aldrich, cat. N0636), 1X B-27 supplement (Thermo Fisher Scientific, cat. 17504044), 1X N-2 supplement (Thermo Fisher Scientific, cat. […]

[1] = second compound 0.0316 µM, first compound 0.0316 µM
[2] = second compound 0.0316 µM, first compound 0.1 µM
[3] = second compound 0.0316 µM, first compound 0.316 µM
[4] = second compound 0.0316 µM, first compound 1 µM
[5] = second compound 0.0316 µM, first compound 3.16 µM
[6] = second compound 0.0316 µM, first compound 10 µM
[7] = second compound 0.1 µM, first compound 0.0316 µM
[8] = second compound 0.1 µM, first compound 0.1 µM
[9] = second compound 0.1 µM, first compound 0.316 µM
[10] = second compound 0.1 µM, first compound 1 µM
[11] = second compound 0.1 µM, first compound 3.16 µM
[12] = second compound 0.1 µM, first compound 10 µM
[13] = second compound 0.316 µM, first compound 0.0316 µM
[14] = second compound 0.316 µM, first compound 0.1 µM
[15] = second compound 0.316 µM, first compound 0.316 µM
[16] = second compound 0.316 µM, first compound 1 µM
[17] = second compound 0.316 µM, first compound 3.16 µM
[18] = second compound 0.316 µM, first compound 10 µM
[19] = second compound 1 µM, first compound 0.0316 µM
[20] = second compound 1 µM, first compound 0.1 µM
[21] = second compound 1 µM, first compound 0.316 µM
[22] = second compound 1 µM, first compound 1 µM
[23] = second compound 1 µM, first compound 3.16 µM
[24] = second compound 1 µM, first compound 10 µM
[25] = second compound 3.16 µM, first compound 0.0316 µM
[26] = second compound 3.16 µM, first compound 0.1 µM
[27] = second compound 3.16 µM, first compound 0.316 µM
[28] = second compound 3.16 µM, first compound 1 µM
[29] = second compound 3.16 µM, first compound 3.16 µM
[30] = second compound 3.16 µM, first compound 10 µM
[31] = second compound 10 µM, first compound 0.0316 µM
[32] = second compound 10 µM, first compound 0.1 µM
[33] = second compound 10 µM, first compound 0.316 µM
[34] = second compound 10 µM, first compound 1 µM
[35] = second compound 10 µM, first compound 3.16 µM
[36] = second compound 10 µM, first compound 10 µM
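Also: spheroids exposed to compounds for one week before readout.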
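For viability, T/C in this document: luminescence used as stand-in measure of viable cells; 100% = DMSO vehicle control viability.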

C=CC(=O)N1CCN(c2nc(=O)n(-c3c(C)ccnc3C(C)C)c3nc(-c4c(O)cccc4F)c(F)cc23)C(C)C1 (centres undefined) + Cc1cccc(N(C)C(=O)C2C(O)CCN2c2nc(C)cc(C(F)(F)F)c2C#N)c1
IC50 (second compound 0.0316 µM): > 10 µM | IC50 (second compound 0.1 µM): > 10 µM | IC50 (second compound 0.316 µM): > 10 µM | IC50 (second compound 1 µM): > 10 µM | IC50 (second compound 3.16 µM): > 10 µM | IC50 (second compound 10 µM): > 10 µM | viability, T/C [1]: 101% | viability, T/C [2]: 104% | viability, T/C [3]: 102% | viability, T/C [4]: 104% | viability, T/C [5]: 111% | viability, T/C [6]: 93.5% | viability, T/C [7]: 98.4% | viability, T/C [8]: 95.6% | viability, T/C [9]: 98.7% | viability, T/C [10]: 103% | viability, T/C [11]: 100% | viability, T/C [12]: 97.7% | viability, T/C [13]: 103% | viability, T/C [14]: 106% | viability, T/C [15]: 105% | viability, T/C [16]: 105% | viability, T/C [17]: 99.5% | viability, T/C [18]: 102% | viability, T/C [19]: 95.8% | viability, T/C [20]: 105% | viability, T/C [21]: 106% | viability, T/C [22]: 99.8% | viability, T/C [23]: 112% | viability, T/C [24]: 91.4% | viability, T/C [25]: 99.2% | viability, T/C [26]: 104% | viability, T/C [27]: 107% | viability, T/C [28]: 102% | viability, T/C [29]: 99.1% | viability, T/C [30]: 96.7% | viability, T/C [31]: 100% | viability, T/C [32]: 90.8% | viability, T/C [33]: 101% | viability, T/C [34]: 102% | viability, T/C [35]: 94.4% | viability, T/C [36]: 88.8%

CCCS(=O)(=O)Nc1ccc(F)c(C(=O)c2c[nH]c3ncc(-c4ccc(Cl)cc4)cc23)c1F + Nc1ccc(C#CCN(C(=O)Cc2ncc(C(F)(F)F)cc2C(F)(F)F)c2ccc(F)cc2)nn1
IC50 (second compound 0.0316 µM): > 10 µM | IC50 (second compound 0.1 µM): > 10 µM | IC50 (second compound 0.316 µM): > 10 µM | IC50 (second compound 1 µM): > 10 µM | IC50 (second compound 3.16 µM): > 10 µM | IC50 (second compound 10 µM): > 10 µM | viability, T/C [1]: 92% | viability, T/C [2]: 111% | viability, T/C [3]: 102% | viability, T/C [4]: 90.8% | viability, T/C [5]: 90.6% | viability, T/C [6]: 89.6% | viability, T/C [7]: 117% | viability, T/C [8]: 105% | viability, T/C [9]: 91.1% | viability, T/C [10]: 107% | viability, T/C [11]: 109% | viability, T/C [12]: 90.3% | viability, T/C [13]: 114% | viability, T/C [14]: 109% | viability, T/C [15]: 108% | viability, T/C [16]: 95.2% | viability, T/C [17]: 96.2% | viability, T/C [18]: 89.2% | viability, T/C [19]: 110% | viability, T/C [20]: 107% | viability, T/C [21]: 105% | viability, T/C [22]: 100% | viability, T/C [23]: 105% | viability, T/C [24]: 82.3% | viability, T/C [25]: 107% | viability, T/C [26]: 112% | viability, T/C [27]: 107% | viability, T/C [28]: 104% | viability, T/C [29]: 94.2% | viability, T/C [30]: 92.9% | viability, T/C [31]: 95.5% | viability, T/C [32]: 105% | viability, T/C [33]: 104% | viability, T/C [34]: 98.4% | viability, T/C [35]: 104% | viability, T/C [36]: 90.8%
